Results on 6 molecules are retold here after publication PMC6133092, “Synthesis of 2-alkylthio-N-(quinazolin-2-yl)benzenesulfonamide derivatives: anticancer activity, QSAR studies, and metabolic stability” (Monatshefte Fur Chemie, 2018).

SMILES strings stand for the structures.

As usually defined, the IC50 is the concentration needed to halve the response being measured. Low values mean greater potency in that assay, high ones weaker potency in that assay.

One data set deals with MCF-7 (breast cancer). The experiment in a line: MTT cell viability assay, MCF-7. The format is cell-based, human. Particulars: mean ± SD. The procedure:
All of the newly synthesized compounds 9–24 were evaluated for their effects on cell viability in three human cancer cell lines: HCT-116 (colon cancer), HeLa (cervical cancer), and MCF-7 (breast cancer). Cisplatin was used as reference drug. […] Considering the activity of derivatives 9–12, 15, 17, 18, and 21–24, it can be noticed that phenyl group as R^3 bring an increase of cytotoxicity in comparison with methyl in place of R^3. However, this impact seems to be the most important for compounds with the bulky group in R^1 and generally, it is less for a set of derivatives with methyl group substituted in R^1 (9–12).
(§1) All chemicals, if not stated otherwise, were obtained from Sigma-Aldrich (St. Louis, MO, USA). The MCF-7 and HeLa cell lines were purchased from Cell Lines Services (Eppelheim, Germany), the HCT-116 cell line was purchased from ATCC (ATCC-No: CCL-247). Cells were cultured in Dulbecco’s modified Eagle’s medium (DMEM) supplemented with 10% fetal bovine serum, 2 mM glutamine, 100 units/cm^3 penicillin, and 100 μg/cm^3 streptomycin. Cultures were maintained in a humidified atmosphere with 5% CO2 at 37 °C in an incubator (Heraceus, HeraCell).
(§2) Cell viability was determined using the MTT (3-(4,5-dimethylthiazol-2-yl)-2,5-diphenyltetrazolium bromide) assay. Cells were seeded in 96-well plates at a density of 5 × 10^3 cells/well and treated for 72 h with the examined compounds in the concentration range 1–100 μM (1, 10, 25, 50, and 100 μM). Following treatment, MTT (0.5 mg/cm^3) was added to the medium and cells were further incubated for 2 h at 37 °C. Cells were lysed with DMSO and the absorbance of the formazan solution was measured at 550 nm with a plate reader (Victor, 1420 multilabel counter). […] The experiment was performed in triplicate. Values are expressed as the mean ± SD of at least three independent experiments.
On the technique in general: Tetrazolium dyes change colour on reduction, which living cells bring about.

For a further data set, the system named is UO-31. The experiment in a line: NCI-60 single dose screen, UO-31. The format is cell-based. Conditions: Homo sapiens, Renal cancer, single concentration 10^−5 M, read-out: IGP (inhibition growth percent) UO-31. The method, then: (§3) Aside from above, compounds 9–14 and 17–24 were also submitted to National Cancer Institute and evaluated for the cytotoxic effects toward 60 cell lines at a single dose of 10 μM (Table 2). […] As it was summarized in Table 2, leukemia RPMI-8226 and NSCLC A549/ATCC were most sensitive to compounds 18, 22, and 24. These derivatives in 10 μM concentration inhibited the growth of approximately 50% cells belonging to the above mention cell lines.
(§4) Cytotoxicity evaluation of compounds 9–14 and 17–24 was performed at the National Cancer Institute according to NCI-60 DTP human tumor cell line screen procedure.

A further data set concerns MOLT-4. The experiment in a line: NCI-60 single dose screen, MOLT-4. The class given is cell-based. Particulars: Homo sapiens, Leukemia, single concentration 10^−5 M, read-out: IGP (inhibition growth percent) MOLT-4. The procedure: as §3, §4
In the next data set the test system is NCI-H522. Kind of data set: NCI-60 single dose screen, NCI-H522. Particulars: Homo sapiens, NSCLC, single concentration 10^−5 M, read-out: IGP (inhibition growth percent) NCI-H522. The format is cell-based. The method, then: as §3, §4
The test system of a further data set is MCF-7. The experiment in a line: NCI-60 single dose screen, MCF-7. The format is cell-based. Conditions: Homo sapiens, MCF7; Breast cancer; single concentration 10^−5 M; read-out: IGP (inhibition growth percent) MCF-7. The procedure: as §3, §4
The next data set has as its system HOP-92. Kind of data set: NCI-60 single dose screen, HOP-92. The format is cell-based. Conditions: Homo sapiens, NSCLC, single concentration 10^−5 M, read-out: IGP (inhibition growth percent) HOP-92. The method, then: as §3, §4
In a further data set the test system is UACC-62. The experiment in a line: NCI-60 single dose screen, UACC-62. The format is cell-based. Particulars: Homo sapiens, Melanoma, single concentration 10^−5 M, read-out: IGP (inhibition growth percent) UACC-62. The procedure: as §3, §4
The next data set deals with HCT-116 (colon cancer). Kind of data set: MTT cell viability assay, HCT-116. The class given is cell-based. Particulars: Homo sapiens, 72 h, mean ± SD. The procedure:
as §1, §2

For another data set, the system named is EKVX. Kind of data set: NCI-60 single dose screen, EKVX. The format is cell-based. Conditions: Homo sapiens, NSCLC, single concentration 10^−5 M, read-out: IGP (inhibition growth percent) EKVX. The method, then: as §3, §4
In a further data set the test system is RPMI-8226. The experiment in a line: NCI-60 single dose screen, RPMI-8226. The format is cell-based. Particulars: Homo sapiens, RPMI-8226, Leukemia; single concentration 10^−5 M; read-out: IGP (inhibition growth percent) RPMI-8226. The procedure: as §3, §4
Another data set relates to HeLa (cervical cancer). The experiment in a line: MTT cell viability assay, HeLa. The format is cell-based. Particulars: Homo sapiens. The procedure:
as §1, §2

For a further data set, the system named is PC-3. The experiment in a line: NCI-60 single dose screen, PC-3. The format is cell-based. Particulars: Homo sapiens, Prostate cancer, single concentration 10^−5 M, read-out: IGP (inhibition growth percent) PC-3. The procedure:
as §3, §4

A further data set has as its system SR. The experiment in a line: NCI-60 single dose screen, SR. The class given is cell-based. Particulars: Homo sapiens, Leukemia, single concentration 10^−5 M, read-out: IGP (inhibition growth percent) SR. The procedure:
as §3, §4

Data set [1] in a line: Metabolic stability in human liver microsomes with NADPH. The format is in vitro ADME. Particulars: pooled human liver microsomes, pH 7.4, human liver microsomes 0.5 mg/cm^3, NADPH 1 mM, 10 μM compound, 37 °C, read-out: in vitro metabolic half-life t1/2. The method, then:
Selected derivatives were submitted to metabolic stability study to assess their ability to remain unchanged in the presence of human metabolic enzymes. Human liver microsomes were used as they are a rich source of all common CYP isoenzymes. In vitro incubations were performed in the presence of NADPH as a cofactor and the disappearance of a derivative was followed using LC–MS technique. The in vitro metabolic half-life values are gathered in Fig. 3.
Stock solutions of studied compounds were prepared at concentration of 10 mM in DMSO. […] Incubation mixture contained 10 μM of a studied derivative, 1 mM of NADPH (Sigma-Aldrich) and 0.5 mg/cm^3 of pooled human liver microsomes (HLM, Sigma-Aldrich) in potassium phosphate buffer (0.1 M, pH 7.4). Incubation was carried out in thermostat at 37 °C and started by addition of studied compound. 50 mm^3 samples were taken at starting point and after 5, 15, 30, 45, and 60 min. Enzymatic reaction was terminated by the addition of the equal volume of ice-cold acetonitrile. Incubations were performed in triplicates, the average t1/2 and standard deviation was calculated. Control incubations were performed without NADPH to assess chemical instability. After collection, samples were immediately centrifuged (10 min, 10,000 rpm) and resulted supernatant was directly analyzed or kept in − 80 °C until LC–MS analysis. Natural logarithm of a compound over IS peak area ratio was plotted versus incubation time. Metabolic half-time (t1/2) was calculated from the slope of the linear regression.
LC–MS analysis was performed on an Agilent 1260 system coupled to SingleQuad 6120 mass spectrometer (Agilent Technologies, Santa Clara, CA, USA). Poroshell EC-C18 (2.1 mm × 150 mm, 2.7 μm, Agilent Technologies, Santa Clara, CA, USA) was used in reversed-phase mode with gradient elution starting with 5% of phase A (10 mM ammonium formate in water) and 95% of phase B (10 mM ammonium formate in acetonitrile–water mixture, 95:5 v/v). […] Total analysis time was 15 min at 40 °C, flow rate was 1 cm^3/min and the injection volume was 5 mm^3. The mass spectrometer was equipped with electrospray ion source and operated in positive ionization. Mass analyzer was set individually to each compound to detect [M+H]^+ protonated molecule. MSD parameters of the ESI source were as follows: nebulizer pressure 35 psig (N2), drying gas […] (N2), drying gas temperature 300 °C, capillary voltage 3 kV, fragmentor voltage 150 V.
(In general: Liver microsomes are vesicles of endoplasmic reticulum, rich in cytochrome P450 enzymes.)

For a further data set, the system named is HCT-116. The experiment in a line: NCI-60 single dose screen, HCT-116. The format is cell-based. Particulars: Homo sapiens, Colon cancer, single concentration 10^−5 M, read-out: IGP (inhibition growth percent) HCT-116. The procedure: as §3, §4
The test system of a further data set is A549/ATCC. The experiment in a line: NCI-60 single dose screen, A549/ATCC. The class given is cell-based. Conditions: Homo sapiens, A549, NSCLC; single concentration 10^−5 M; read-out: IGP (inhibition growth percent) A549/ATCC. The method, then: as §3, §4
Where [2] appears, read: Table 4, repeats Table 1 values without SD and unit.

Turning to `N.N.[Cl][Pt][Cl]` [Cisplatin, reference compound], the IC50 in the data set with MCF-7 (breast cancer) (72 h) was 3 ± 0.1 µM.

As to `Cc1cc(S(=O)(=O)Nc2nc(C)c3ccccc3n2)c(SCc2ccccc2)cc1Cl` [Compound 9, 2-Benzylthio-4-chloro-5-methyl-N-(4-methylquinazolin-2-yl)benzenesulfonamide], the inhibition at 10 µM in the data set with UO-31 was 27%; with MOLT-4, 12%; with NCI-H522, 9%; in the data set on MCF-7 it was 2%; in the data set on HOP-92 it was 3%; in the data set with UACC-62, 29%. Moreover, the inhibition at 10 µM came to 3% in the data set on EKVX, 15% in the data set with RPMI-8226, 2% with PC-3 and 6% in the data set with SR. For the same molecule, the IC50 turned out to be 100 ± 2 µM in the data set with MCF-7 (breast cancer) (Homo sapiens, MCF7, 72 h); 61 ± 1 µM in the data set on HCT-116 (colon cancer); 75 ± 5 µM in the data set on HeLa (cervical cancer) (MTT, 72 h, mean ± SD); 75 µM in the data set on HeLa (cervical cancer) (setting [2]). The half-life at 10 μM in data set [1] came out at 51.9 min.

Take `Cc1cc(S(=O)(=O)Nc2nc(-c3ccccc3)c3ccccc3n2)c(SCC(N)=O)cc1Cl` [Compound 14, 2-Carbamoylmethylthio-4-chloro-5-methyl-N-(4-phenylquinazolin-2-yl)benzenesulfonamide]: the inhibition at 10 µM came out at 2% in the data set on UO-31, 9% with MOLT-4, 4% with NCI-H522 and 17% with SR. Moreover, the half-inhibitory concentration (IC50) in the data set on MCF-7 (breast cancer) (Homo sapiens, MCF7, 72 h) is 155 ± 9 µM; in the data set on HCT-116 (colon cancer) it was 85 ± 3 µM; in the data set with HeLa (cervical cancer) (MTT, 72 h, mean ± SD), 120 ± 1 µM. Further, the half-life at 10 μM in [1] was 90.8 min.

As to `Cc1nc(NS(=O)(=O)c2cc(C(=O)Nc3ccc(Cl)cc3)c(Cl)cc2SCC(N)=O)nc2ccccc12` [Compound 19, 2-Carbamoylmethylthio-4-chloro-5-(4-chlorophenylcarbamoyl)-N-(4-methylquinazolin-2-yl)benzenesulfonamide], the inhibition at 10 µM in the data set on UO-31 is 7%; in the data set with MOLT-4, 3%; in the data set on NCI-H522, 8%; with MCF-7, 4%; with HOP-92 it was 8%; in the data set on RPMI-8226 it was 3%. For the same molecule, the inhibition at 10 µM in the data set on HCT-116, in the data set with PC-3 and in the data set with SR was 4% in each case. The half-maximal inhibitory concentration (IC50) in the data set with MCF-7 (breast cancer) (Homo sapiens, MCF7, 72 h) was 105 ± 3 µM; with HCT-116 (colon cancer) it was 100 ± 4 µM; in the data set on HeLa (cervical cancer) (MTT, 72 h, mean ± SD), 117 ± 5 µM; in the data set with HeLa (cervical cancer) (setting [2]), 117 µM.

For the molecule `NC(=O)CSc1cc(Cl)c(C(=O)Nc2ccc(Cl)cc2)cc1S(=O)(=O)Nc1nc(-c2ccccc2)c2ccccc2n1` [Compound 20, 2-Carbamoylmethylthio-4-chloro-5-(4-chlorophenylcarbamoyl)-N-(4-phenylquinazolin-2-yl)benzenesulfonamide], the inhibition at 10 µM with UO-31 turned out to be 3%; with MOLT-4 it was 5%; with NCI-H522, 11%; in the data set with MCF-7, 3%; with HOP-92, 4%; with UACC-62, 8%. For the same molecule, the inhibition at 10 µM in the data set with RPMI-8226 is 10%; in the data set on PC-3 it was 2%; with SR, 6%. The 50% inhibitory concentration (IC50) in the data set with MCF-7 (breast cancer) (Homo sapiens, MCF7, 72 h) is 92 ± 1 µM; with HCT-116 (colon cancer), 140 ± 4 µM; in the data set with HeLa (cervical cancer) (MTT, 72 h, mean ± SD), 110 ± 7 µM; in the data set on HeLa (cervical cancer) (setting [2]), 110 µM. In [1], the half-life at 10 μM was 49.7 min.

For `Cc1ccc(NC(=O)c2cc(S(=O)(=O)Nc3nc(C)c4ccccc4n3)c(SCc3ccccc3)cc2Cl)cc1` [Compound 23, 2-Benzylthio-4-chloro-5-(4-methylphenylcarbamoyl)-N-(4-methylquinazolin-2-yl)benzenesulfonamide], the inhibition at 10 µM is 21% in the data set with UO-31; 5% with MOLT-4; 6% in the data set with A549/ATCC; 8% with MCF-7; 15% with EKVX; 17% in the data set on RPMI-8226. Also, the inhibition at 10 µM was determined as 18% with PC-3 and 8% with SR. Further, the concentration for half-maximal inhibition (IC50) in the data set with MCF-7 (breast cancer) (Homo sapiens, MCF7, 72 h) is 97 ± 2 µM; in the data set on HCT-116 (colon cancer), 70 ± 1 µM; with HeLa (cervical cancer) (MTT, 72 h, mean ± SD) it was 75 ± 2 µM; in the data set on HeLa (cervical cancer) (setting [2]), 75 µM. Further, the half-life at 10 μM in [1] was 35 min.
